Entries after “also recorded” stand apart in the source; their conditions may differ. Structures can show the parent of a compound that is named as a salt. Where two headings read alike, the source gives them in different places. One block for each compound: values may come before it. Where a SMILES comes first, the peptide text is derived from it. [ ]: non-standard residue; d: D form. dNle = CCCC[C@@H](N)C(=O)O; Nle = CCCC[C@H](N)C(=O)O; GABA = NCCCC(=O)O
Experiments:
[1] = Serum metabolism of peptides in rat serum; format: in vitro ADME; details: for half-life at 500 µg/mL: male, Sprague Dawley, rat, serum
Description: Four month old male Sprague Dawley rats were used as the blood source for the metabolism studies. Blood was collected from left/right jugular veins of the rats using sterile catheters. After a 30 minute incubation on ice, the blood was centrifuged at 1000 rpm for 15 min to separate the serum. Serum was then transferred to clean tubes and stored at −20° C. until use.
Except for dihexa all drug solutions were prepared in HPLC grade water at 5 mg/ml. Stock drugs were kept in powder form and stored at −20° C. Serum metabolism experimental procedure and analysis. Rat blood serum samples were pre-equilibrated at 37° C. and then 10 μL (50 μg) of each drug solution was added to 90 μL of rat serum in 1.5 mL Eppendorf tube maintained at 37° C. At specified time intervals, metabolism was terminated by precipitating proteins with the addition of 1 ml of a solution of acetonitrile (ACN) and acetic acid (9:1, v/v). The terminated reaction mixture was stored in refrigerator (5° C.) overnight and centrifuged (14,000 rpm) for 30 min to remove precipitated proteins. The separated supernatant was dried in vacuum concentrator. The dried samples were reconstituted using 200 μL HPLC mobile phase (10% v/v ACN in water), vortexed briefly, and subjected to HPLC separation and analysis. A serum blank experiment to detect any interfering peaks in the HPLC chromatogram was performed by in an identical manner except that no drug was added. Zero time values for each drug candidate were established by first treating the serum with ACN, processing the sample as described above, adding drug, and then performing HPLC analysis.
The degradation rate of drug was determined by measuring the decrease in area under curve (AUC) at the retention time of drug over time. The AUC obtained from the zero time experiment was considered to represent the “100%” drug concentration and was used to determine the decreased drug concentration at each specified time interval. The semi-logarithmic plot of drug concentration vs. time was generated to determine degradation kinetic constant (k) of the tested drug. The half-life of drug was (t1/2) was calculated by 0.693/k.
Analysis of samples was performed using an HPLC system. The system consisted of a communications bus module, pumps, and a photodiode array detector. Separation was achieved using a C18 (250 mm×4.6 mm id., 5 μm particle size) reverse phase column. The column temperature was set at 40° C. The mobile phase consisted of a mixture of ACN and water with 0.1% TFA and was degassed by ultrasonication. Samples were introduced by manual mode with an injection volume of 250 μL. The drug was eluted with a flow rate of 1 mL/min and detected by PDA detector at […] wavelengths of 215 and 280 nm.

scopolamine treated rats = assay: Morris water maze, scopolamine amnesia model; format: in vivo, rat; details: for mean latency to find the pedestal: icv, Dihexa, Hinge 300 pmol, scopolamine 70 nmol
Description: Swim speed was determined from these values.

hippocampal neurons = assay: Dendritic spine counts (spinogenesis) in mRFP-β-actin transfected dissociated hippocampal neurons; format: cell-based, rat; details: dose-response; 10^-8 and 10^-10 M
Description: Hippocampal neurons (2×10^5 cells per square cm) were cultured from P1 Sprague Dawley rats on plates coated with poly-L-lysine from Sigma (St. Louis, Mo.; molecular weight 300,000). […] Each experiment was repeated at least three times using independent culture preparations. […] Hippocampal neurons (2×10^5 cells per square centimeter) were cultured from P1-2 Sprague Dawley rats on plates coated with poly-L-lysine from Sigma (St. Louis, Mo.; molecular weight 300,000). Hippocampal neurons were maintained in Neurobasal A media from Invitrogen (Carlsbad, Calif.) supplemented with B27 from Invitrogen, 0.5 mM L-glutamine, and […] cytosine-D-arabinofuranoside from Sigma added at 2 days in vitro. Hippocampal neurons were then cultured a further 3-7 days, at which time they were either transfected or treated with various pharmacological reagents as described in the text or figure legends. Neurons were transfected with mRFP-β-actin on day in vitro 6 […] using LipofectAMINETM 2000 (Invitrogen) according to the manufacturer's protocol. […] On DIV7 the cells were treated with vehicle (H20) or peptides (as described in the text) added to media. […] Five 50 μm long segments of dendrite from at least 10 neurons per data point were analyzed for each data point reported. Each experiment was repeated at least three times using independent culture preparations. […] A target sequence for c-Met was designed using RNAi central design program (see the website located at […].edu/). The target sequence […] NO: 2) was inserted into pSUPER vector (Oligoengine, Seattle Wash.) which drives endogenous production of shRNA under the H1 promoter. The shRNA was transfected into cells using the lipofectamine method described above. Verification of receptor knockdown was done by creating a c-[…]-Myc tagged gene product using the Gateway cloning system (Invitrogen). The Met protein coding sequence was cloned from rat whole brain cDNA using primers obtained from Integrated DNA Technologies, Inc. The amplified product was gel purified and a band corresponding to 190 kDa band excised and cloned into a […] destination vector (Gateway). Hippocampal neurons (2×10^5 cells per square cm) were cultured from P1 Sprague Dawley rats on plates coated with poly-L-lysine from Sigma (St. Louis, Mo.; molecular weight […]).

[2] = rat serum, 37° C., Mean +/− SD, N = 3, read-out: Half-Life (min), serum stability

Structure (SMILES): CCCC[C@@H](N)C(=O)N[C@@H](Cc1ccc(O)cc1)C(=O)N[C@H](C(=O)O)[C@@H](C)CC [D-Nle-Tyr-Ile] (H-[dNle]-Tyr-Ile-OH)
- half-life at 500 µg/mL [1, 2]: 225 min

Structure (SMILES): CC[C@H](C)[C@H](NC(=O)[C@H](Cc1ccc(O)cc1)NC(=O)CCCN)C(=O)O [GABA-Tyr-Ile] (H-[GABA]-Tyr-Ile-OH; N-terminus and C-terminus assumed)
- time spent in the target quadrant, day 9 probe trial (scopolamine treated rats; scopolamine icv 70 nmol, analog icv 1 nmol): different than all the other treated groups
- latency to find the submerged platform in the Morris water maze (scopolamine treated rats; scopolamine icv 70 nmol, analog icv 1 nmol, 8 days): exhibited the best performance among the compound treated groups; also recorded: not significantly different than the vehicle control group
- time spent in the target quadrant, day 9 probe trial (scopolamine treated rats; scopolamine icv 70 nmol, analog icv 1 nmol, listed as GABA-Tyr): superior to all the other compound treated groups
- half-life at 500 µg/mL [1, 2]: 946 min
- spine numbers, stabilized AngIV analogs (FIG. 31) (hippocampal neurons): did not appear to be the most potent generator of new dendritic spines

Structure (SMILES): CCCC[C@H](NC(C)=O)C(=O)N[C@@H](Cc1ccc(O)cc1)C(=O)N[C@H](C(=O)N[C@@H](Cc1c[nH]cn1)C(=O)O)[C@@H](C)CC [N-acetyl-Nle-Tyr-Ile-His] (Ac-[Nle]YIH-OH)
- half-life at 500 µg/mL [1, 2]: 115 min

Structure (SMILES): CCCC[C@H](N)C(=O)N[C@@H](Cc1ccc(O)cc1)C(=O)N[C@H](C(=O)N[C@@H](Cc1cnc[nH]1)C(=O)N1CCC[C@H]1C(=O)N[C@@H](Cc1ccccc1)C(=O)O)[C@@H](C)CC [Nle1-AngIV, Norleucine-YIHPF, reference compound] (H-[Nle]YIHPF-OH)
- half-life at 500 µg/mL [1, 2]: 1.42 min
- half-life at 500 µg/mL ([1]; read-out: t1/2 in rat serum): 1.4 min
- Half-Life (min), serum stability ([1]; rat serum, 37° C., Mean +/− SD, N = 3): less than two minutes

- half-life at 500 µg/mL [1, 2]: 23 min
Structure (SMILES): CCCC[C@H](N)C(=O)N[C@@H](Cc1ccc(O)cc1)C(=O)N[C@H](C(=O)N[C@@H](Cc1c[nH]cn1)C(N)=O)[C@@H](C)CC [Nle-Tyr-Ile-His-NH2] (H-[Nle]YIH-NH2)

Structure (SMILES): CN1[C@@H]2C[C@@H](OC(=O)[C@H](CO)c3ccccc3)C[C@H]1[C@@H]1O[C@@H]12 [scopolamine, Scopolamine hydrobromide, reference compound]
- mean latency to find the pedestal (scopolamine treated rats; day one of training): 114.7 s
- mean latency to find the pedestal (scopolamine treated rats; final day of training (day 8)): 84.8 s
- mean latency to find the pedestal (scopolamine treated rats; fourth day of training): 102.4 s

— patent US9051351B2, “Hepatocyte growth factor mimics as therapeutic agents” (Washington State University, priority 2011, dated 2015)
